Test results taken from patent US8129427B2, “2-phenylethylamino derivatives as calcium and/or sodium channel modulators” (Newron Pharmaceuticals S.p.A., priority 2005, dated 2012).

Legend:
[1] = test system: TTXs sodium channels; test: TTXs-sodium channel influx assay (membrane potential fluorescence); type: cell-based, rat; settings: ND7/23 cells, veratridine 100 μM
Protocol: ND7/23 rat dorsal root ganglion-derived cell line endogenously expresses a mixed population of TTXs sodium channels (such as Nav1.3, Nav1.2, Nav1.1, Nav1.6). These cells lack of TTXr sodium channels as shown by the absence of their respective transcripts. ND7/23 cells were grown in DMEM supplemented with 10% FBS and 1 mM sodium piruvate.
The cells were seeded at 50,000 cells/well on 96 poly-L-lysine-coated plates and further incubated for 18-24 h before use.
The Membrane Potential Kit Assay (Molecular Devices), based on a negatively charged fluorescent dye able to monitor changes in membrane potential caused by the sodium influx due to the channel opening, was used for the assay.
Cells were incubated with the dye loading for 30 minutes at 25° C. Then, 100 nM of the toxin Anemonia sulcata (used as enhancer of the channel opener response) alone or in the presence of TTX (as reference standard) or test compound were added for further 15 minutes.
The fluorescence (excitation: 530 nm, emission: 565 nm wavelength) was measured before and after (40-45 s) the automated injection of the sodium channel opener veratridine (100 μM) using a Victor plate reader (Perkin Elmer).
The inhibition curves were calculated from 5 concentrations, each in triplicate, and the IC50 determined using a linear regression analysis.

[2] = molecular target: T1, recombinant Nav 1.3 channels (Homo sapiens, UniProt Q9NY46); test: Patch clamp studies of sodium currents inhibition in HEK293 cells; type: cell-based; settings: tonic block, preconditioning −50 mV (half maximal steady-state inactivated condition); read-out: IC50 (Vhalf)
T1 construct: expressed in transfected cells; host or cells: HEK293 cells
Protocol: Cells and methods: Functional inhibition of the sodium currents was studied using whole cell patch clamp methods (Hamill O. P., Marty A., Neher E., Sakmann B., Sigworth F. J., Pflugers Arch. (1981) 391 (2): 85-100) on HEK293 cells expressing recombinant Nav 1.3 channels. Membrane currents were recorded as described in the example above.
For sodium current recording control bath solution contained (mM): NaCl (80), Choline chloride (38), CaCl2 (1.3), MgCl2 (2), KCl (2), CdCl2 (0.4), NiCl2 (0.3), TEA.Cl (20), Hepes (10), Glucose (10). Internal pipette solution consisted of (mM): EGTA (10), NaCl (10), CaCl2 (1.3), MgCl2 (2), Hepes (10), CsF (130), MgATP (1).
Compounds were dissolved as 20 mM stock solutions in DMSO and then diluted to the final concentration in the external solutions.
Voltage protocols and data analyses: A two-step protocol was used to determine the voltage dependence of the block:
sodium current was activated by a 30 ms step pulse to 10 mV (test pulse) from a 2000 ms preconditioning potential of −100 mV (resting condition) or −50 mV (half maximal steady-state inactivated condition), respectively.
The amplitude of sodium current peaks evoked by the respective test pulses at a frequency of 0.06 Hz were measured before and after exposure to the test substance. Tonic block of currents was calculated as the difference between the Nacurrent peak measured at the end of a stabilization period in the control external bath solution and the current peak measured at the end of test substance perfusion period (when steady state is reached) divided by control peaks. Drug concentration-inhibition curves were obtained by plotting tonic blocks versus drug concentrations. Dose-response curves were fitted to the tonic block data, according to the logistic equation: y=A2+(A1−A2)/[1+(x/IC50)^p]. A1 and A2 are fixed values of 0 and 1 corresponding to 0 and 100% current inhibition, x is the drug concentration, IC50 is the drug concentration resulting in 50% current inhibition and p is the corresponding slope factor.

[3] = test system: chronic constriction injury model in the rat; test: Bennett model of neuropathic pain in rats (cold allodynia); type: in vivo; settings: AUD of cold allodynia as percent inhibition of vehicle control
Protocol: Effects on neuropathic pain are tested in the chronic constriction injury model in the rat (Bennett, G. J. and Xie, Y. K., A peripheral mononeuropathy in rat that produces disorders of pain sensation like those seen in man, Pain, 33 (1988) 87-107). Under pentobarbital anesthesia (Nembutal, 50 mg/kg, i.p.), unilateral multiple ligations are performed on male Sprague-Dawley rats (140-160 g) at the right common sciatic nerve. The sciatic nerve is exposed by blunt dissection at the level of mid-thigh and four loose ligatures (5-0 chromic catgut) are placed around the nerve taking care not to interrupt the epineural circulation. After operation, animals are allowed to recover for one week. Animals develop a cold allodynia which is stable for at least five weeks. […] The animals, randomly assigned to groups of 10 for each test dose and vehicle, are observed for periods of 2 minutes before and after application of test compound and the number of brisk withdrawal reactions is counted. […] Percent maximal possible effect (% MPE) and standard error of the mean (SEM) of each time point is determined with the pre-test value used as […]. The area under the data (AUD) is calculated for the observation period and expressed as percent inhibition of vehicle control as shown in Table 8. Significance is calculated by paired t-test on the percent AUD values.

T1 sequence (Q9NY46 whole entry): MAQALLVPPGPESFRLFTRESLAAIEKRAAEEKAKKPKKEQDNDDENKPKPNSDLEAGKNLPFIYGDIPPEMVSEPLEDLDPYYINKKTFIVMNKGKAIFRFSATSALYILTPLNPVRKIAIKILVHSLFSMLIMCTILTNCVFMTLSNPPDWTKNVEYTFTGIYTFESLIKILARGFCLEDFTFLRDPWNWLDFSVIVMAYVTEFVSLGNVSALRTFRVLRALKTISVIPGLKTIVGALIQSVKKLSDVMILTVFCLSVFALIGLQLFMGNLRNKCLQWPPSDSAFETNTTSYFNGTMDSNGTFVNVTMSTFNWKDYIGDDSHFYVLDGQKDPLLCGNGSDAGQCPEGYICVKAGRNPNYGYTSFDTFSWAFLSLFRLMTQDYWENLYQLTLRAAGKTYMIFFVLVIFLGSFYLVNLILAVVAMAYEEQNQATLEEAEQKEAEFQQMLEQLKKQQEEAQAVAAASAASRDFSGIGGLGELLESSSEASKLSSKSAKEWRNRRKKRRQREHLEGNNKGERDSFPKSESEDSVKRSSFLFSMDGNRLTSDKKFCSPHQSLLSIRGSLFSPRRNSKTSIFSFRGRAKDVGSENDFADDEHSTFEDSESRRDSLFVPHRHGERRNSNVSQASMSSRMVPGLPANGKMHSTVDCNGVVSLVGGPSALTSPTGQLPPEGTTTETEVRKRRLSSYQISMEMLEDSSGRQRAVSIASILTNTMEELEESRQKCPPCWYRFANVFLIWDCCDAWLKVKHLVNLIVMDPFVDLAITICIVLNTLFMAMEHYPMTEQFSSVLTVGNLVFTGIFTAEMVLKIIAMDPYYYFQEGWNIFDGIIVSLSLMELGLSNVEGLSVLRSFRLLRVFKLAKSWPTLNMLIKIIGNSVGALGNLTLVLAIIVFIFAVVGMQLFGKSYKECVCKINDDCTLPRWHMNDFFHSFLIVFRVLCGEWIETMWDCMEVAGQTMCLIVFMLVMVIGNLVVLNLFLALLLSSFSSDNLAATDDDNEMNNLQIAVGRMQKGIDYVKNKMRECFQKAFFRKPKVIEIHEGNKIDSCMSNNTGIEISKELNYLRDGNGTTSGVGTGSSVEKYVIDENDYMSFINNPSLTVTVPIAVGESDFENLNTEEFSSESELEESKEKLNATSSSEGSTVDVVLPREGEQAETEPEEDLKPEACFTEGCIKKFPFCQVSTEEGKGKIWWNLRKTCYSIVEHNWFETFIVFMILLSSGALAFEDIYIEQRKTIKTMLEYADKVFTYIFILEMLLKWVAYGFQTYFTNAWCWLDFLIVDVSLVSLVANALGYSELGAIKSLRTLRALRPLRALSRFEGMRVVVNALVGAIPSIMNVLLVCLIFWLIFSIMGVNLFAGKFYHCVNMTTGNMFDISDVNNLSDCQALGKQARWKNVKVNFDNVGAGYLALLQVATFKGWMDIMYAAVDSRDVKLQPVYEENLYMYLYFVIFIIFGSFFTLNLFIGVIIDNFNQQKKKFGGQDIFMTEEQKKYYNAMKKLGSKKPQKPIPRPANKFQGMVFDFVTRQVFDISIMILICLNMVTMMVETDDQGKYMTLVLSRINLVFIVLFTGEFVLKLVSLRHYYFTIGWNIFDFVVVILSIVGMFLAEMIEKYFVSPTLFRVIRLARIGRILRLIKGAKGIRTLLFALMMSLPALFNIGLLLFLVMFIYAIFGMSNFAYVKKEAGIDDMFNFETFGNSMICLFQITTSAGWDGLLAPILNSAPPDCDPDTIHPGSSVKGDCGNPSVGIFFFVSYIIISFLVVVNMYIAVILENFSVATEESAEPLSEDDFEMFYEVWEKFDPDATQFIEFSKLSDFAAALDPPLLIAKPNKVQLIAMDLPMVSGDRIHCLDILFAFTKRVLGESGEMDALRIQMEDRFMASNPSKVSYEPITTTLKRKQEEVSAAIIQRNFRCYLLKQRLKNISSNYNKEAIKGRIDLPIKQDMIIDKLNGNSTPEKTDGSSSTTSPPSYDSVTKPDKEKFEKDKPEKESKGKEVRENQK

Row | SMILES | IC50 [1] [µM] | IC50 [2] [µM] | Change vs. Control ([3]; 0.1 mg/kg p.o.) [%] | Change vs. Control ([3]; 1.0 mg/kg p.o.) [%]
1 | CCCCOc1cccc(CCN(CC(=O)N(C)C)CC2CCOC2)c1.Cl (racemic) [Example 96, 2-[[2-(3-Butoxy-phenyl)-ethyl]-(tetrahydrofuran-3-ylmethyl)amino]-N,N-dimethyl-acetamide hydrochloride] | 2 | 3.1 | 35.7 | 
2 | C[C@H](NCc1ccc(OCc2ccccc2F)cc1)C(N)=O [ralfinamide, (S)-(+)-2-[4-(2-fluoro-benzyloxy)-benzylamino]-propanamide, reference compound] | 9.5 | 15 |  | 23.7
